According to PubChem BioAssay AID1918930 (Molecular Pharmacology Branch, DTP, NCI, 2023):

System: 233499-124-R-J3-PDC complex spheroid viability, % test/control
Test: Anticancer human tumor 233499-124-R-J3-PDC patient-derived colon adenocarcinoma cell line growth inhibition
Details: for IC50: curve of first compound; for viability, T/C: stronger effect = lower value
Outline: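 Drug combinations with the LSD1 inhibitor iadademstat tested on tumor cells co-cultured as spheroids with endothelial cells and mesenchymal stem cells. Concentrations descended in half-log increments from clinical Cmax or 10 microM.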

[1] = second compound 0.1 µM, first compound 0.00949 µM
[2] = second compound 0.1 µM, first compound 0.03 µM
[3] = second compound 0.1 µM, first compound 0.0949 µM
[4] = second compound 0.1 µM, first compound 0.3 µM
[5] = second compound 0.316 µM, first compound 0.00949 µM
[6] = second compound 0.316 µM, first compound 0.03 µM
[7] = second compound 0.316 µM, first compound 0.0949 µM
[8] = second compound 0.316 µM, first compound 0.3 µM
[9] = second compound 1 µM, first compound 0.00949 µM
[10] = second compound 1 µM, first compound 0.03 µM
[11] = second compound 1 µM, first compound 0.0949 µM
[12] = second compound 1 µM, first compound 0.3 µM
[13] = second compound 3.16 µM, first compound 0.00949 µM
[14] = second compound 3.16 µM, first compound 0.03 µM
[15] = second compound 3.16 µM, first compound 0.0949 µM
[16] = second compound 3.16 µM, first compound 0.3 µM
[17] = second compound 10 µM, first compound 0.00949 µM
[18] = second compound 10 µM, first compound 0.03 µM
[19] = second compound 10 µM, first compound 0.0949 µM
[20] = second compound 10 µM, first compound 0.3 µM
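Also: spheroids exposed to agents for one week before readout.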

Question: For CCc1c2c(nc3ccc(O)cc13)-c1cc3c(c(=O)n1C2)COC(=O)[C@]3(O)CC + NC1CC1c1ccc(-c2cccc(O)c2)cc1, which IC50 (second compound 0.1 µM) is on record?
Answer: The IC50 was 25.6 nM.

Question: What about the IC50 (second compound 0.316 µM) of the same molecule?
Answer: Its IC50 is 22.6 nM.

Question: What about the IC50 (second compound 1 µM) of the same molecule?
Answer: The IC50 was 24.5 nM.

Question: What about the IC50 (second compound 3.16 µM) of the same molecule?
Answer: Its IC50 is 27.6 nM.

Question: What about the IC50 (second compound 10 µM) of the same molecule?
Answer: Its IC50 is 50.3 nM.

Question: And the viability, T/C (second compound 0.1 µM, first compound 0.000949 µM)?
Answer: Its viability, T/C is 88%.

Question: What about the viability, T/C (second compound 0.1 µM, first compound 0.003 µM) of the same molecule?
Answer: Its viability, T/C is 122%.

Question: What about the viability, T/C [1] of the same molecule?
Answer: The viability, T/C was 90.8%.

Question: And the viability, T/C [2]?
Answer: Its viability, T/C is 44.2%.

Question: What about the viability, T/C [3] of the same molecule?
Answer: Its viability, T/C is 27.7%.

Question: What about the viability, T/C [4] of the same molecule?
Answer: The viability, T/C was 29.5%.

Question: What about the viability, T/C (second compound 0.316 µM, first compound 0.000949 µM) of the same molecule?
Answer: Its viability, T/C is 103%.

Question: What about the viability, T/C (second compound 0.316 µM, first compound 0.003 µM) of the same molecule?
Answer: The viability, T/C was 112%.

Question: What about the viability, T/C [5] of the same molecule?
Answer: The viability, T/C was 88.1%.

Question: And the viability, T/C [6]?
Answer: The viability, T/C was 38.3%.

Question: What about the viability, T/C [7] of the same molecule?
Answer: The viability, T/C was 25.2%.

Question: What about the viability, T/C [8] of the same molecule?
Answer: The viability, T/C was 30.3%.

Question: And the viability, T/C (second compound 1 µM, first compound 0.000949 µM)?
Answer: The viability, T/C was 70.4%.

Question: What about the viability, T/C (second compound 1 µM, first compound 0.003 µM) of the same molecule?
Answer: The viability, T/C was 112%.

Question: And the viability, T/C [9]?
Answer: The viability, T/C was 101%.

Question: What about the viability, T/C [10] of the same molecule?
Answer: Its viability, T/C is 40.6%.

Question: And the viability, T/C [11]?
Answer: Its viability, T/C is 19.6%.

Question: And the viability, T/C [12]?
Answer: Its viability, T/C is 30.4%.

Question: And the viability, T/C (second compound 3.16 µM, first compound 0.000949 µM)?
Answer: The viability, T/C was 77.6%.

Question: And the viability, T/C (second compound 3.16 µM, first compound 0.003 µM)?
Answer: The viability, T/C was 109%.

Question: And the viability, T/C [13]?
Answer: The viability, T/C was 98.6%.

Question: And the viability, T/C [14]?
Answer: Its viability, T/C is 46.4%.

Question: What about the viability, T/C [15] of the same molecule?
Answer: Its viability, T/C is 31.5%.

Question: What about the viability, T/C [16] of the same molecule?
Answer: The viability, T/C was 24.6%.

Question: And the viability, T/C (second compound 10 µM, first compound 0.000949 µM)?
Answer: Its viability, T/C is 65.1%.

Question: And the viability, T/C (second compound 10 µM, first compound 0.003 µM)?
Answer: The viability, T/C was 88.5%.

Question: And the viability, T/C [17]?
Answer: Its viability, T/C is 105%.

Question: What about the viability, T/C [18] of the same molecule?
Answer: The viability, T/C was 59.7%.

Question: What about the viability, T/C [19] of the same molecule?
Answer: The viability, T/C was 43.8%.

Question: What about the viability, T/C [20] of the same molecule?
Answer: Its viability, T/C is 32.4%.

Question: For CC1COCCN1c1cc(-c2ccnn2C)c2ccnc(-c3ccn[nH]3)c2n1 (stereo not given) + NC1CCC(NC2CC2c2ccccc2)CC1, which IC50 (second compound 0.1 µM) is on record?
Answer: Its IC50 is 28.5 nM.

Question: And the IC50 (second compound 0.316 µM)?
Answer: The IC50 was 57.7 nM.

Question: What about the IC50 (second compound 1 µM) of the same molecule?
Answer: The IC50 was 19 nM.

Question: And the IC50 (second compound 3.16 µM)?
Answer: The IC50 was 22.7 nM.

Question: What about the IC50 (second compound 10 µM) of the same molecule?
Answer: The IC50 was 17.5 nM.

Question: What about the viability, T/C (second compound 0.1 µM, first compound 0.00316 µM) of the same molecule?
Answer: Its viability, T/C is 86.8%.

Question: And the viability, T/C (second compound 0.1 µM, first compound 0.01 µM)?
Answer: Its viability, T/C is 91.9%.

Question: And the viability, T/C (second compound 0.1 µM, first compound 0.0316 µM)?
Answer: Its viability, T/C is 46.1%.

Question: And the viability, T/C (second compound 0.1 µM, first compound 0.1 µM)?
Answer: The viability, T/C was 45.4%.

Question: And the viability, T/C (second compound 0.1 µM, first compound 0.316 µM)?
Answer: Its viability, T/C is 25.4%.

Question: And the viability, T/C (second compound 0.1 µM, first compound 1 µM)?
Answer: Its viability, T/C is 30.7%.

Question: What about the viability, T/C (second compound 0.316 µM, first compound 0.00316 µM) of the same molecule?
Answer: Its viability, T/C is 101%.

Question: And the viability, T/C (second compound 0.316 µM, first compound 0.01 µM)?
Answer: Its viability, T/C is 79.2%.

Question: And the viability, T/C (second compound 0.316 µM, first compound 0.0316 µM)?
Answer: Its viability, T/C is 63.8%.

Question: And the viability, T/C (second compound 0.316 µM, first compound 0.1 µM)?
Answer: The viability, T/C was 39.1%.

Question: And the viability, T/C (second compound 0.316 µM, first compound 0.316 µM)?
Answer: The viability, T/C was 30.1%.

Question: And the viability, T/C (second compound 0.316 µM, first compound 1 µM)?
Answer: The viability, T/C was 33.6%.

Question: And the viability, T/C (second compound 1 µM, first compound 0.00316 µM)?
Answer: The viability, T/C was 87.3%.

Question: What about the viability, T/C (second compound 1 µM, first compound 0.01 µM) of the same molecule?
Answer: The viability, T/C was 71.1%.

Question: And the viability, T/C (second compound 1 µM, first compound 0.0316 µM)?
Answer: The viability, T/C was 32.8%.

Question: What about the viability, T/C (second compound 1 µM, first compound 0.1 µM) of the same molecule?
Answer: Its viability, T/C is 33.9%.

Question: And the viability, T/C (second compound 1 µM, first compound 0.316 µM)?
Answer: The viability, T/C was 21.9%.

Question: What about the viability, T/C (second compound 1 µM, first compound 1 µM) of the same molecule?
Answer: The viability, T/C was 28.5%.

Question: What about the viability, T/C (second compound 3.16 µM, first compound 0.00316 µM) of the same molecule?
Answer: The viability, T/C was 81.1%.

Question: What about the viability, T/C (second compound 3.16 µM, first compound 0.01 µM) of the same molecule?
Answer: The viability, T/C was 71.2%.

Question: What about the viability, T/C (second compound 3.16 µM, first compound 0.0316 µM) of the same molecule?
Answer: Its viability, T/C is 39.9%.

Question: What about the viability, T/C (second compound 3.16 µM, first compound 0.1 µM) of the same molecule?
Answer: Its viability, T/C is 30%.

Question: And the viability, T/C (second compound 3.16 µM, first compound 0.316 µM)?
Answer: The viability, T/C was 18.1%.

Question: What about the viability, T/C (second compound 3.16 µM, first compound 1 µM) of the same molecule?
Answer: The viability, T/C was 22.2%.

Question: And the viability, T/C (second compound 10 µM, first compound 0.00316 µM)?
Answer: The viability, T/C was 79.5%.

Question: What about the viability, T/C (second compound 10 µM, first compound 0.01 µM) of the same molecule?
Answer: Its viability, T/C is 63.5%.

Question: What about the viability, T/C (second compound 10 µM, first compound 0.0316 µM) of the same molecule?
Answer: The viability, T/C was 35%.

Question: And the viability, T/C (second compound 10 µM, first compound 0.1 µM)?
Answer: The viability, T/C was 27.3%.

Question: What about the viability, T/C (second compound 10 µM, first compound 0.316 µM) of the same molecule?
Answer: Its viability, T/C is 17.8%.

Question: And the viability, T/C (second compound 10 µM, first compound 1 µM)?
Answer: Its viability, T/C is 23.1%.

Question: What does the source list for NS(=O)(=O)OCC1CC(n2ccc3c(NC4CCc5ccccc54)ncnc32)CC1O (stereo not given) + NC1CCC(NC2CC2c2ccccc2)CC1?
Answer: IC50 (second compound 0.1 µM): 108 nM; IC50 (second compound 0.316 µM): 88.8 nM; IC50 (second compound 1 µM): 47.5 nM; IC50 (second compound 3.16 µM): 49.6 nM; IC50 (second compound 10 µM): 54.1 nM; viability, T/C [1]: 106%; viability, T/C [2]: 95.7%; viability, T/C [3]: 55.9%; viability, T/C [4]: 9.71%; viability, T/C (second compound 0.1 µM, first compound 0.949 µM): 11.5%; viability, T/C (second compound 0.1 µM, first compound 3 µM): 9.68%; viability, T/C [5]: 90.8%; viability, T/C [6]: 70%; viability, T/C [7]: 53.4%; viability, T/C [8]: 9.15%; viability, T/C (second compound 0.316 µM, first compound 0.949 µM): 6.44%; viability, T/C (second compound 0.316 µM, first compound 3 µM): 7.69%; viability, T/C [9]: 90.7%; viability, T/C [10]: 55.9%; viability, T/C [11]: 43.2%; viability, T/C [12]: 12%; viability, T/C (second compound 1 µM, first compound 0.949 µM): 11.3%; viability, T/C (second compound 1 µM, first compound 3 µM): 6.96%; viability, T/C [13]: 102%; viability, T/C [14]: 62.9%; viability, T/C [15]: 34.5%; viability, T/C [16]: 10.7%; viability, T/C (second compound 3.16 µM, first compound 0.949 µM): 7.04%; viability, T/C (second compound 3.16 µM, first compound 3 µM): 1.91%; viability, T/C [17]: 89.9%; viability, T/C [18]: 66.2%; viability, T/C [19]: 33.4%; viability, T/C [20]: 19%; viability, T/C (second compound 10 µM, first compound 0.949 µM): 5.43%; viability, T/C (second compound 10 µM, first compound 3 µM): 3.7%
